Experiment [1] deals with HeLa. As to the kind of experiment: Antimitotic activity in human HeLa cells assessed as tubulin staining intensity at 1 nM after 24 hrs by Hoechst 33342 staining. The class given is functional, cell-based.
Experiment [2] has as its system MDA-MB-231. Put plainly: Antimigratory activity against human MDA-MB-231 cells at 1 uM after 22 hrs by scratch wound healing assay. The class given is functional.
The test system of experiment [3] is MDA-MB-231. As to the kind of experiment: Antimigratory activity against human MDA-MB-231 cells at 0.5 to 5 uM after 22 hrs by scratch wound healing assay. The class given is functional, cell-based.
For experiment [4], the system named is HeLa. As to the kind of experiment: Antimitotic activity in human HeLa cells assessed as tubulin staining intensity at 5 nM after 24 hrs by Hoechst 33342 staining. The class given is functional, cell-based.
For experiment [5], the system named is HeLa. As to the kind of experiment: Cell cycle arrest in human HeLa cells assessed as disorganized microtubules at 62 nM after 24 hrs by Hoechst 33342 staining. The class given is functional, cell-based.
For another experiment, the system named is L1210. Put plainly: Cytotoxicity against mouse L1210 cells after 24 hrs by MTT assay. The class given is functional, cell-based. Particulars: L1210, 24 h. On the technique in general: Tetrazolium dyes change colour on reduction, which living cells bring about.
The subject of experiment [6] is HeLa. As to the kind of experiment: Antimitotic activity in human HeLa cells assessed as cell density loss after 24 hrs by Hoechst 33342 staining. The class given is functional, cell-based.
The test system of experiment [7] is HeLa. Put plainly: Cell cycle arrest in human HeLa cells assessed as disorganized microtubules at 470 nM after 24 hrs by Hoechst 33342 staining. It counts as functional, cell-based.
Experiment [8] relates to HeLa. As to the kind of experiment: Antimitotic activity in human HeLa cells assessed as increase in phosphohistone H3 level after 24 hrs by Hoechst 33342 staining. It counts as functional.
Experiment [9] in a line: Inhibition of bovine brain tubulin assembly after 20 mins by spectrophotometric analysis. More on the design: species or system Bos taurus.
For a further experiment, the system named is PBMC. As to the kind of experiment: Cytotoxicity against human PBMC cells after 24 hrs by MTT assay. It counts as cell-based.
Another experiment concerns Jurkat. Put plainly: Cytotoxicity against human Jurkat cells after 48 hrs by MTT assay. The class given is functional, cell-based.
A further experiment concerns HUVEC. Put plainly: Cytotoxicity against human HUVEC cells after 24 hrs by MTT assay. The class given is cell-based.
Experiment [10] relates to MDA-MB-231. As to the kind of experiment: Antimigratory activity against human MDA-MB-231 cells after 6 hrs by Boyden chamber migration assay. It counts as functional, cell-based. The settings on record: MDA-MB-231, 6 h.
Another experiment concerns REH. As to the kind of experiment: Cytotoxicity against human REH cells after 48 hrs by MTT assay. It counts as functional, cell-based.
Another experiment relates to NIH3T3. Put plainly: Cytotoxicity against mouse NIH/3T3 cells after 24 hrs by MTT assay. It counts as cell-based. Particulars: NIH3T3, 24 h.
The test system of experiment [11] is HeLa. As to the kind of experiment: Antimitotic activity in human HeLa cells assessed as chromatin condensation after 24 hrs by Hoechst 33342 staining. It counts as functional. Particulars: read-out: MEC.
Experiment [12] has as its system HeLa. Put plainly: Antimitotic activity in human HeLa cells assessed as tubulin intensity after 24 hrs by Hoechst 33342 staining. The class given is functional. Particulars: read-out: MEC.
Experiment [13] relates to HeLa. As to the kind of experiment: Cell cycle arrest in human HeLa cells assessed as disorganized microtubules at 940 nM after 24 hrs by Hoechst 33342 staining. It counts as functional, cell-based.

Calls of active or inactive are those of the source. The calls are words filed in the database; no cut-off is given here.

Regarding `COc1cc2c(c(OC)c1OC)-c1ccc(OC)c(=O)cc1[C@@H](NC(C)=O)CC2` [COLCHICINE], in the experiment on HeLa [1], the result was inactive. Further, the Activity in the experiment on MDA-MB-231 [2] was 74%. Moreover, the outcome in the experiment with MDA-MB-231 [3], with HeLa [4] and in the experiment on HeLa [5] was Active.

Turning to `COc1cc(C(=O)/C=C/c2ccc(Cl)cc2)cc(OC)c1OC`, half-maximal inhibition in the experiment with L1210 (IC50) was put at 44.5 µM.

For `COc1cc(/C=C/C(=O)c2cc(OC)c(OC)c(OC)c2)cc(OC)c1OC`, the IC50 in the experiment with L1210 was > 100 µM.

As for `COc1cc(C(=O)/C=C/c2ccc(C)cc2)cc(OC)c1OC`, the midpoint of inhibition in the experiment on L1210, the IC50, lay at 50.5 µM.

In the experiment on L1210, `COc1cc(OC)c(/C=C/C(=O)c2cc(OC)c(OC)c(OC)c2)c(OC)c1` registered an IC50 of 62.5 µM.

On to `COc1cc(C(=O)/C=C/c2ccc(N(C)C)cc2)cc(OC)c1OC` (mixture of isomers), for which the 50% effective concentration (EC50) with HeLa [6] was 0.357 µM. For the same compound, the result in the experiment on HeLa [7], with MDA-MB-231 [3] and in the experiment with HeLa [4] was Active. Besides, the Activity in the experiment on HeLa [8] was determined as 200 nM; in the experiment with MDA-MB-231 [2], 54%. The outcome with HeLa [1] was inactive. Further, the IC50 in [9] is 2.8 µM; in the experiment with PBMC it was 92.5 µM; in the experiment with Jurkat, 1.2 µM; in the experiment on HUVEC, > 100 µM; in the experiment with L1210, 30 µM; in the experiment with MDA-MB-231 [10], 0.656 µM. Besides, the IC50 with REH came out at 1.05 µM; with NIH3T3, 66 µM.

`COc1cc(C(=O)/C=C/c2ccc(Cl)cc2Cl)cc(OC)c1OC` registered an IC50 in the experiment on L1210 of 52.5 µM.

With `COc1cc(C(=O)/C=C/c2c(Cl)cccc2Cl)cc(OC)c1OC`, inhibition in the experiment with L1210 was half-maximal at 50.5 µM (IC50).

With `CCCCOc1ccc(/C=C/C(=O)c2cc(OC)c(OC)c(OC)c2)cc1`, in the experiment on L1210, the IC50 was > 100 µM.

`COc1ccc(/C=C/C(=O)c2ccc3c(c2)OCO3)c(OC)c1OC`: the EC50 in the experiment on HeLa [6] is > 50 µM. The Activity in the experiment with HeLa [8] was > 50000 nM. The 50% inhibitory concentration (IC50) in experiment [9] is > 10 µM; in the experiment with PBMC, 81.2 µM; in the experiment with Jurkat it was 30 µM; in the experiment with L1210, 47.5 µM; with REH it was 23.6 µM. For the same compound, the minimal effective concentration in the experiment on HeLa [11] and with HeLa [12] was > 50 µM each time.

On to `COc1cc(C(=O)/C=C/c2cc(Cl)cc(Cl)c2)cc(OC)c1OC`, for which, in the experiment with L1210, the concentration for half-maximal inhibition (IC50) was determined as 44 µM.

In the case of `COc1cc(C(=O)/C=C/c2ccc(F)cc2)cc(OC)c1OC`, in the experiment with L1210, 46.5 µM corresponded to half-maximal inhibition (IC50).

`O=C(/C=C/c1ccccc1)c1ccccc1` [CHALCONE]: the 50% effective concentration (EC50) in the experiment on HeLa [6] is > 50 µM. Further, in the experiment on HeLa [8], the Activity was > 50000 nM. Also, the concentration for half-maximal inhibition (IC50) was > 10 µM in experiment [9], 27 µM in the experiment on PBMC, 17.1 µM in the experiment with Jurkat and > 100 µM in the experiment on L1210. Moreover, the minimal effective concentration in the experiment with HeLa [11] and in the experiment on HeLa [12] was > 50 µM each time.

`COc1cc(C(=O)/C=C/c2ccc(C)o2)cc(OC)c1OC` yielded an IC50 in the experiment with L1210 of 46.5 µM.

Consider `COc1ccc(/C=C/C(=O)c2cc(OC)c(OC)c(OC)c2)cc1`, for which, in the experiment with L1210, half-maximal inhibition (IC50) was put at 48 µM.

`COc1cc(C(=O)/C=C/c2ccc(Cl)c(Cl)c2)cc(OC)c1OC` showed an IC50 with L1210 of 44 µM.

Take `COc1cc(C(=O)/C=C/c2ccc3ccccc3c2)ccc1O`: the EC50 in the experiment with HeLa [6] worked out at 3.3 µM. The Activity with HeLa [8] is 1400 nM. In addition, the IC50 came out at 3.6 µM in experiment [9]; 35.6 µM in the experiment on PBMC; 5.9 µM with Jurkat; 54 µM in the experiment with L1210; 2.58 µM in the experiment with REH. Besides, the minimal effective concentration in the experiment on HeLa [11] stood at 2.2 µM; with HeLa [12], 1.1 µM.

As to `COc1cc(/C=C/C(=O)c2cc(OC)c(OC)c(OC)c2)ccc1O`, in the experiment on L1210, the IC50 was > 100 µM.

`COc1cc(C(=O)/C=C/c2ccc3ccccc3c2)cc(OC)c1OC`: in the experiment on HeLa [6], the EC50 amounted to 0.684 µM. Also, the results for the Activity in the experiment with HeLa [8] and with MDA-MB-231 [2] were 397 nM and 46%, respectively. Moreover, in the experiment with HeLa [1], the outcome was inactive. Moreover, the IC50 in [9] was 2.2 µM; in the experiment on PBMC, 18 µM; in the experiment with Jurkat, 0.5 µM; in the experiment with HUVEC, 37 µM; in the experiment on L1210, 26 µM; in the experiment with MDA-MB-231 [10] it was 1.09 µM. For the same compound, the values for the half-inhibitory concentration (IC50) in the experiment on REH and with NIH3T3 were 0.73 µM and 34 µM, respectively. In addition, the outcome in the experiment on MDA-MB-231 [3], in the experiment with HeLa [4] and with HeLa [13] was Active.

For the compound `COc1cc(C(=O)/C=C/c2ccc(Cl)c(C(F)(F)F)c2)cc(OC)c1OC`, the IC50 with L1210 worked out at 47.5 µM.

Take `COc1cc(C(=O)/C=C/c2ccc(Br)cc2)cc(OC)c1OC`: the IC50 with L1210 was > 100 µM.

Consider `COc1cc(C(=O)/C=C/c2ccc([N+](=O)[O-])cc2)cc(OC)c1OC`, for which the IC50 with L1210 is > 100 µM.

As for `COc1cc(C(=O)/C=C/c2cccc([N+](=O)[O-])c2)cc(OC)c1OC`, the IC50 with L1210 is > 56 µM.

In the experiment with L1210, `COc1cc(OC)c(OC)cc1/C=C/C(=O)c1cc(OC)c(OC)c(OC)c1` showed an IC50 of 42.5 µM.

For orientation: IC50 means the concentration that inhibits the measured activity by half. A high value points to a need for much substance. As a reminder, the EC50 is the concentration needed to bring the measured effect to its halfway point.

These data come from ChEMBL document CHEMBL2375311, “Cytotoxic 3,4,5-trimethoxychalcones as mitotic arresters and cell migration inhibitors” (Eur J Med Chem, 2013).
